Experimental data published in patent publication US9611330B2, “Compositions and methods for cancer and cancer stem cell detection and elimination” (The Regents of the University of California, priority 2011, dated 2017).
Entries after “also recorded” stand apart in the source; their conditions may differ. Read-outs that look alike come from different tables or passages of the source.

What was measured:
[1] = system: Shh stimulated luciferase expression under an 8× Gli-response element; assay: Mouse embryonic fibroblast Gli-luciferase reporter assay (Gli-Luc MEFs); format: cell-based; conditions: n=5, read-out: IC50, inhibition of Shh stimulated luciferase reporter activity in Gli-Luc MEFs
Source text: Mouse Embryonic Fibroblast Gli-Luciferase Assay Mouse Embryonic Fibroblasts expressing luciferase under control of an 8× Gli-response element (Gli-Luc MEFs)^23 were obtained from the Pfizer transgenic core facility. Luciferase activity was quantified with an ENVISION™ plate reader (Perkin Elmer). Graphpad Prism was used for data analysis and IC50 calculation.

[2] = system: blast crisis CML leukemic progenitors (LSC); assay: SL/M2 stromal co-culture of blast crisis CML LSC; format: cell-based, human; conditions: 7 days, vs vehicle (DMSO), p=0.047
Procedure: Stromal Co-Culture and in vitro Drug Treatment
(§1) Normal or blast crisis CML CD34^+ cells were plated on confluent mitomycin-C treated SL/M2 cells with different doses of PF-04449913, dasatinib, a combination of PF-04449913 and dasatinib, or vehicle for […]. After 1 week of culture, FACS was used to quantify human progenitors and progenitors were FACS sorted into hematopoietic progenitor assays. Colonies were scored after 2 weeks in culture.
(§2) The mouse bone marrow stromal cells lines M2-10B4 (M2) and SL/SL (SL) were provided by StemCell Technologies on behalf of Dr. Donna Hogge in the Terry Fox Laboratory (Vancouver, British Columbia). One day prior to co-culture, the cell lines were treated with mitomycin-C (1 mg/ml) and plated in a 1:1 mixture in total concentration of 100,000/ml. 10,000-20,000 CD34^+ blast crisis CML or normal cells were then plated on adherent SL/M2 stromal cells, cultured for 7 days, and analyzed by FACS as described previously^19. To assess expansion of normal human HS/PCs, irradiated OP9 (M2 clone) stromal cells (20 Gray on a Saxon-Mark1 irradiator) were co-cultured with 50,000 human CD34^+ cord blood. OP9M2 stroma was grown in AlphaMem from Gibco with 20% Hyclone FBS, 1% pen strep glutamine and supplemented with cytokines: […] Flt3.

[3] = system: normal human cord blood HSPC; assay: Normal human HSPC in hematopoietic progenitor assays and SL/M2 co-culture; format: cell-based
Procedure: as §1, §2

[4] = system: normal human HSPC; assay: CD34+ cord blood engrafted NSG mice, 14-day treatment; format: in vivo; conditions: 100 mg/kg for 14 days
Procedure: Cg-Prkdc^scid Il2rg^tm1Wjl/SzJ female mice at 7-10 weeks were irradiated sublethally and transplanted with 100K CD34^+ human cord blood cells via retro-orbital injection. Eight weeks after transplantation of cord blood cells, the mice were treated for 14 days with either vehicle, or PF-04449913 via oral gavage.
(§3) Single cell suspensions of bone marrow cells from mice treated with PF-0449913 or vehicle were immunostained with Alexa647-conjugated anti-human CD45 (BioLegend) in 2% fetal bovine serum/PBS followed by live cell staining using the LIVE/DEAD® Fixable Near-IR Dead Cell Stain Kit (Invitrogen). Surface stained cells were then fixed in 70% ethanol overnight. Fixed, surface stained cells were immunostained with FITC-conjugated anti-Ki-67 (Abcam, 1:100) in 0.15% saponin/2% fetal bovine serum/PBS, washed twice in saponin-containing staining media and incubated with 7-AAD (10 μg/mL in 0.1M sodium citrate/5 mM EDTA pH8.0/0.15M NaCl/0.5% BSA/0.02% saponin). Stained samples were analyzed using a FACSARIA™ and FLOWJO™^21.

[5] = system: Ptch+/−p53+/− medulloblastoma allografts; assay: Mouse medulloblastoma allograft model; format: in vivo; conditions: oral dosing
Source text: TAQMAN™ primer/probe sets (ABI) for FoxM1 (Mm00514924_ml), Gli1 (Mm00494645_ml), Gli2 (Mm01293117_ml), Mycn (Mm00476449_ml), Ptch1 (Mm00436026_ml), Ptch2 (Mm00436047_ml), Sfrp1 (Mm00489161_ml), Smo (Mm01162710_ml) and mouse GAPDH (4352339E), on the ABI 7900HT instrument. Target gene expression levels were normalized to mouse GAPDH and calibrated to vehicle treated mice to yield the relative quantitation (RQ) value. Selective Shh Inhibition in a Mouse Medulloblastoma Allograft Model Primary medulloblastoma tumors were harvested from Ptch^+/−p53^+/− or Ptch^+/−p53^−/− mice and propagated as allografts in SCID-bg mice 6-8 weeks of age (20 grams). Freshly isolated tumor fragments of approximately 50 mm^3 were surgically implanted subcutaneously into the hind flank region. Body weights and tumor size (length and width) were measured at regular intervals using a caliper and tumor volume was calculated using the formula: length (mm)×width (mm)×width (mm)×0.4. For the tumor growth inhibition studies, cohorts of Ptch^+/−p53^+/− medulloblastoma allograft bearing mice with tumors ranging from 200 mm^3 to 1000 mm^3 were dosed daily by oral gavage with vehicle (30% PEG 400/70% PBS) or with PF-04449913 formulated in vehicle.

[6] = target: T1, human SMO (amino acids 181-787) (Homo sapiens, UniProt Q99835); assay: SMO radioligand competition binding assay
T1 construct: V5-His (named only in the vector, pSecTag-FRT/V5-His); expressed in transfected cells; membranes prepared
Procedure: SMO Radioligand Competition Binding Assay
Membranes were prepared from a stable cell line created in HEK293FlpIn-TetR cells (Invitrogen) using Flp recombinase-mediated insertion of the pSecTag-FRT/V5-His vector containing a cDNA encoding amino acids 181-787 of human Smo fused to the murine Igk leader sequence to produce a cell surface expressed […] protein. LacZ-negative cells were analyzed for binding a well characterized cyclopamine-competitive tritiated Smo antagonist^22. The tritiated ligand was prepared using Crabtree's catalyst and tritium gas. The labeled material was purified by RP HPLC (53.1 Ci/mmol specific activity at 99% purity). For the binding competition assay, 100 μl of assay buffer was added to all the wells of a 96 well GF/B filter plate (Millipore MULTISCREEN-HTS-FB™ cat # MSFBN6B50). The plates were counted in a TOPCOUNT™ scintillation counter (Perkin Elmer). Data analysis uses EXCEL™ for % Inhibition and GRAPHPAD PRISM™ for IC50 calculation.

[7] = system: human blast crisis CML LSC; format: in vivo
Procedure: Human Progenitor Primagrafts and Treatment
Equal numbers of primary normal or blast crisis CML CD34^+ cells were transplanted intrahepatically into neonatal RAG2^−/−γc^−/− mice to form primagrafts, according to established methods^1, 3. At 8-12 weeks post-transplant, mice were treated with PF-04449913, Dasatinib, a combination of PF-04449913 and Dasatinib, or drug vehicle for 14 days followed by FACS analysis of human hematopoietic engraftment in hematopoietic tissues.
Nanofluidic phospho-proteomic immunoassay (NPI) experiments were performed with the NANOPRO 1000™ instrument (Cell Biosciences) and all samples were run in triplicate at least. The FIREFLY™ system first performed a charge-based separation (isoelectric focusing). Predicted pIs were calculated with SCANSITE™. Each sample was run on a panel of different pH gradients (pH 5-8) to optimize the resolution of different peak patterns. After separation and photo-activated in-capillary immobilization, GLI-2 was detected using GLI2-specific antibody (Abcam). A β2-microglubulin-specific antibody (β2M; Upstate) was used to normalize the amount of loaded protein. The peaks were quantified by calculating the area under the curve (AUC).
Primagrafts, in vivo Drug Treatment, and Engraftment Analysis
Immunocompromised RAG2^−/−γc^−/− mice were bred and maintained in the UC San Diego Moores Cancer Center vivarium. Neonatal mice were transplanted intrahepatically with normal progenitors or LSC from primary patient samples according to our previously published methods^19. Upon detection of tumor or peripheral blood engraftment, mice were treated daily by oral gavage with vehicle (50% 1,2 Propandiol, 50% HBSS or methylcellulose), PF-04449913 (100 mg/kg dissolved in vehicle), Dasatinib (50 mg/kg dissolved in vehicle), combination of PF-04449913 (100 mg/kg) and dasatinib (50 mg/kg). After treatment, mice were euthanized and single cell suspensions of hematopoietic tissues were analyzed for human engraftment by FACS as described previously^19, 20. Similarly, NOD.
Four vehicle-treated and four PF-04449913-treated samples constituting two sets of four technical replicates. The reads from the four RNA sequencing experiments under each treatment regimen were then combined for analysis of effects of vehicle and PF-04449913-treatment containing a total of 65M and 64M reads, respectively and compared with normal FACS purified cord blood CD34^+CD38^+Lin^− progenitors.
as §3

[8] = cell cycle FACS, bone marrow, 14 days

T1 sequence (Q99835 181-787): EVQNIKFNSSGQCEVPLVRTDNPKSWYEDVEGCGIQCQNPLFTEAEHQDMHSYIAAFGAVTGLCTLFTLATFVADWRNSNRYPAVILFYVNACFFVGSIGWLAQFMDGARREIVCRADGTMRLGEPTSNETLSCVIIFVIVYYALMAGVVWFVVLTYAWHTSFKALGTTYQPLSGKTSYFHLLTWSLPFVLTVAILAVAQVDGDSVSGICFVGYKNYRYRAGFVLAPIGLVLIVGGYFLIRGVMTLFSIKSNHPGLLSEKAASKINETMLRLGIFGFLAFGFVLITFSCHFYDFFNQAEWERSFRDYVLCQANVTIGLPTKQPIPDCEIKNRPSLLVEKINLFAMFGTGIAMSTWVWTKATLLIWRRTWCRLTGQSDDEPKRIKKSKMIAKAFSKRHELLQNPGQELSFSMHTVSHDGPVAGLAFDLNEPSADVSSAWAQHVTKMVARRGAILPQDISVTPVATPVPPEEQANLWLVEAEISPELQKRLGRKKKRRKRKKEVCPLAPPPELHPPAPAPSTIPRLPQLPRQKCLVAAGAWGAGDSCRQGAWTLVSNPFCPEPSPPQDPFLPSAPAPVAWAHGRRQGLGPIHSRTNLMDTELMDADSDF

CN1CC[C@@H](NC(=O)Nc2ccc(C#N)cc2)C[C@@H]1c1nc2ccccc2[nH]1 [PF-04449913]
IC50 [1]: 6.8 nM | LSC / leukemic progenitor survival [2]: significantly reduced; also recorded: reduction in blast crisis leukemic progenitor survival | percentage of normal HSPC ([3]; 7 days SL/M2 stromal co-culture): remained constant | differentiation capacity of normal human HSPC ([3]; hematopoietic progenitor assays): unimpaired | frequency of HSPC, myeloid and lymphoid cell fate commitment [4]: remained comparable to vehicle treated controls | human hematopoietic cell cycle status [4]: unaltered | medulloblastoma growth ([5]; Ptch1+/−p53+/− allograft model): significantly reduce medulloblastoma growth | Shh target gene expression in allograft ([5]; Ptch+/−p53+/− allografts): decreased Shh target gene expression | IC50 ([6]; 4.3 nM+/−5.2 nM, N=5, read-out: IC50, SMO competition binding, value with spread): 4.3 nM | IC50 ([6]; cyclopamine-competitive tritiated SMO antagonist, read-out: IC50, competition with radiolabeled SMO antagonist for binding to human SMO (amino acids 181-787)): 4 nM | spleen weight ([7]; 100 mg/kg daily, 14 days, p=0.006): significant decrease | body weight ([7]; 100 mg/kg oral gavage, 14 days): no evidence of weight loss | GLI1 transcript level in FACS purified progenitors ([7]; 100 mg/kg, 14 days, p=0.056): reductions | GLI2 transcript level in FACS purified progenitors ([7]; 100 mg/kg, 14 days, p=0.08): reductions | expression of cell cycle regulators ([7]; RNA sequencing of engrafted leukemic progenitors, family wise p-value 0.02): repression of cell cycle regulators | cell cycle gene isoforms shifting toward normal progenitor splice isoform pattern ([7]; RNA sequencing, Fisher exact test p=0.0006): 75 of 110 | sonic hedgehog pathway isoforms reverting to normal progenitor splice isoform pattern ([7]; RNA sequencing, Fisher exact test p=0.0048): 37 of 50 | fraction of leukemic progenitors in G0 [7, 8]: reduced the fraction of leukemic progenitors in G0 | fraction of leukemic progenitors in G1 [7, 8]: increase in the G1 fraction | human GLI protein expression ([7]; immunofluorescence and nanoproteomics (p=0.001), vs vehicle): reduced human GLI protein expression
